Test results published in ChEMBL document CHEMBL1129258, “Synthesis and structure-activity relationships of 2-pyridones: a novel series of potent DNA gyrase inhibitors as antibacterial agents” (J Med Chem, 1996).
In brackets after ≈: the same amount, converted by molar mass.

Target: T1, DNA gyrase (Escherichia coli) (UniProt P0AES6+P0AES4)
Assay: In vivo efficacy against Escherichia coli JUHL after oral administration
Assay type: functional, organism-based
Conditions: Escherichia coli K-12

SMILES | ED50 [mg/kg]
Cc1c(N2CC[C@@H]([C@@H](C)N)C2)c(F)cn2c(=O)c(C(=O)O)cc(C3CC3)c12 | 5.7

Test system: Escherichia coli
Assay: In vivo efficacy against Escherichia coli JUHL by orally administered.
Assay type: functional
Conditions: po

SMILES | ED50 [mg/kg]
Cc1c(N2CCC(N)C2)c(F)cn2c(=O)c(/C(O)=C/[N+](=O)[O-])cc(C3CC3)c12 (stereo not drawn) | > 10

Target: T1, DNA gyrase (Escherichia coli)
Assay: In vivo efficacy against Escherichia coli JUHL by subcutaneous administration
Assay type: functional, organism-based
Conditions: Escherichia coli K-12

SMILES | ED50 [mg/kg]
Cc1c(N2CC[C@@H]([C@@H](C)N)C2)c(F)cn2c(=O)c(C(=O)O)cc(C3CC3)c12 | 0.5

Test system: Escherichia coli
Assay: In vivo efficacy against Escherichia coli JUHL by subcutaneously administered.
Assay type: functional
Conditions: sc

SMILES | ED50 [mg/kg]
Cc1c(N2CCC(N)C2)c(F)cn2c(=O)c(/C(O)=C/[N+](=O)[O-])cc(C3CC3)c12 (stereo not drawn) | > 5

Target: T1, DNA gyrase (Escherichia coli)
Assay: In vitro antibacterial activity against gram-negative organism […] ATCC 13048
Assay type: functional
Conditions: Enterobacter aerogenes

SMILES | MIC [µg/mL]
Cc1c(N2CCC(N)C2)c(F)cn2c(=O)c(/C(O)=C/[N+](=O)[O-])cc(C3CC3)c12 (stereo not drawn) | 0.1 (≈ 0.257 µM)
Cc1c(N2CC[C@@H]([C@@H](C)N)C2)c(F)cn2c(=O)c(C(=O)O)cc(C3CC3)c12 | 0.01 (≈ 0.0268 µM)

Target: T1, DNA gyrase (Escherichia coli)
Assay: In vitro antibacterial against gram-negative organism Escherichia coli JUHL
Assay type: functional
Conditions: Escherichia coli K-12

SMILES | MIC [µg/mL]
Cc1c(N2CCC(N)C2)c(F)cn2c(=O)c(/C(O)=C/[N+](=O)[O-])cc(C3CC3)c12 (stereo not drawn) | 0.02 (≈ 0.0515 µM)
Cc1c(N2CC[C@@H]([C@@H](C)N)C2)c(F)cn2c(=O)c(C(=O)O)cc(C3CC3)c12 | 0.001 (≈ 0.00268 µM)

Target: T1, DNA gyrase (Escherichia coli)
Assay: In vitro antibacterial activity against gram-negative organism Klebsiella pneumoniae ATCC 8045
Assay type: functional
Conditions: not given

SMILES | MIC [µg/mL]
Cc1c(N2CCC(N)C2)c(F)cn2c(=O)c(/C(O)=C/[N+](=O)[O-])cc(C3CC3)c12 (stereo not drawn) | 0.02 (≈ 0.0515 µM)
Cc1c(N2CC[C@@H]([C@@H](C)N)C2)c(F)cn2c(=O)c(C(=O)O)cc(C3CC3)c12 | 0.001 (≈ 0.00268 µM)

Test system: not listed separately
Assay: In vivo efficacy against Pseudomonas aeruginosa 5007 after subcutaneous administration
Assay type: functional
Conditions: Pseudomonas aeruginosa, sc; read-out: ED50

SMILES | ED50 [mg/kg]
Cc1c(N2CC[C@@H]([C@@H](C)N)C2)c(F)cn2c(=O)c(C(=O)O)cc(C3CC3)c12 | 5.4

Test system: Pseudomonas aeruginosa
Assay: In vivo efficacy against Pseudomonas aeruginosa 5007 by subcutaneously administered.
Assay type: functional
Conditions: sc

SMILES | ED50 [mg/kg]
Cc1c(N2CCC(N)C2)c(F)cn2c(=O)c(/C(O)=C/[N+](=O)[O-])cc(C3CC3)c12 (stereo not drawn) | 3.2

Target: T1, DNA gyrase (Escherichia coli)
Assay: In vitro antibacterial activity against gram-negative organism Prov. stuartii CMX-640
Assay type: functional
Conditions: Providencia stuartii

SMILES | MIC
Cc1c(N2CCC(N)C2)c(F)cn2c(=O)c(/C(O)=C/[N+](=O)[O-])cc(C3CC3)c12 (stereo not drawn) | 1.56 µg/mL (≈ 4.02 µM)
Cc1c(N2CC[C@@H]([C@@H](C)N)C2)c(F)cn2c(=O)c(C(=O)O)cc(C3CC3)c12 | 0.78 pug ml-1

Test system: not listed separately
Assay: In vitro antibacterial activity against gram-negative organism Pseudomonas aeruginosa 5007
Assay type: functional
Conditions: Pseudomonas aeruginosa; read-out: MIC

SMILES | MIC [µg/mL]
Cc1c(N2CCC(N)C2)c(F)cn2c(=O)c(/C(O)=C/[N+](=O)[O-])cc(C3CC3)c12 (stereo not drawn) | 0.39 (≈ 1 µM)
Cc1c(N2CC[C@@H]([C@@H](C)N)C2)c(F)cn2c(=O)c(C(=O)O)cc(C3CC3)c12 | 0.2 (≈ 0.536 µM)

Test system: not listed separately
Assay: In vitro antibacterial activity against gram-negative organism Pseudomonas aeruginosa DPHD-2862
Assay type: functional
Conditions: Pseudomonas aeruginosa; read-out: MIC

SMILES | MIC [µg/mL]
Cc1c(N2CCC(N)C2)c(F)cn2c(=O)c(/C(O)=C/[N+](=O)[O-])cc(C3CC3)c12 (stereo not drawn) | 6.2 (≈ 16 µM)
Cc1c(N2CC[C@@H]([C@@H](C)N)C2)c(F)cn2c(=O)c(C(=O)O)cc(C3CC3)c12 | 6.2 (≈ 16.6 µM)

Test system: Staphylococcus aureus
Assay: In vivo efficacy against Staphylococcus aureus NCTC-10649M after oral administration
Assay type: functional
Conditions: not given

SMILES | ED50 [mg/kg]
Cc1c(N2CC[C@@H]([C@@H](C)N)C2)c(F)cn2c(=O)c(C(=O)O)cc(C3CC3)c12 | 1.1

Test system: Streptococcus pneumoniae
Assay: In vivo efficacy against Stap. administered.
Assay type: functional
Conditions: not given

SMILES | ED50 [mg/kg]
Cc1c(N2CCC(N)C2)c(F)cn2c(=O)c(/C(O)=C/[N+](=O)[O-])cc(C3CC3)c12 (stereo not drawn) | > 8

Target: T2, DNA gyrase (Staphylococcus aureus) (UniProt P0A0K8+P20831)
Assay: In vitro antibacterial activity against gram-positive organism Staphylococcus aureus 1775
Assay type: functional
Conditions: not given

T2 sequence (P0A0K8 2-644 limits assumed): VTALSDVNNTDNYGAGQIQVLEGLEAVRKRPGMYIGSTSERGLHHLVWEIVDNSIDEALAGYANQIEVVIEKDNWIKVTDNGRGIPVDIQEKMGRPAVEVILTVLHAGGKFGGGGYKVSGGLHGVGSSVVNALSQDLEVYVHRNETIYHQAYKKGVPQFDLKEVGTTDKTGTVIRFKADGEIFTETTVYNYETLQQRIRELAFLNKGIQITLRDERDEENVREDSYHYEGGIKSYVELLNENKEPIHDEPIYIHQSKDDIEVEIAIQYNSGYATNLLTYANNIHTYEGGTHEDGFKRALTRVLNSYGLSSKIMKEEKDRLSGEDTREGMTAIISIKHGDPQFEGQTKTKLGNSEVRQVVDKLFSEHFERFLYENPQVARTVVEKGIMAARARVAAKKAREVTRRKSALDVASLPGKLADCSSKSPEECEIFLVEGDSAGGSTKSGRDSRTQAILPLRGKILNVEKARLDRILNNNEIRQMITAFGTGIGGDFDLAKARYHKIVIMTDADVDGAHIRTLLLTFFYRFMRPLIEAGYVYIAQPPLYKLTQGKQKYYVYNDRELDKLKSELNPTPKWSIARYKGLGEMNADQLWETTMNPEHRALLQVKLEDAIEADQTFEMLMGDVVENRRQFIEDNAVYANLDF
T2 sequence (P20831 whole entry partner): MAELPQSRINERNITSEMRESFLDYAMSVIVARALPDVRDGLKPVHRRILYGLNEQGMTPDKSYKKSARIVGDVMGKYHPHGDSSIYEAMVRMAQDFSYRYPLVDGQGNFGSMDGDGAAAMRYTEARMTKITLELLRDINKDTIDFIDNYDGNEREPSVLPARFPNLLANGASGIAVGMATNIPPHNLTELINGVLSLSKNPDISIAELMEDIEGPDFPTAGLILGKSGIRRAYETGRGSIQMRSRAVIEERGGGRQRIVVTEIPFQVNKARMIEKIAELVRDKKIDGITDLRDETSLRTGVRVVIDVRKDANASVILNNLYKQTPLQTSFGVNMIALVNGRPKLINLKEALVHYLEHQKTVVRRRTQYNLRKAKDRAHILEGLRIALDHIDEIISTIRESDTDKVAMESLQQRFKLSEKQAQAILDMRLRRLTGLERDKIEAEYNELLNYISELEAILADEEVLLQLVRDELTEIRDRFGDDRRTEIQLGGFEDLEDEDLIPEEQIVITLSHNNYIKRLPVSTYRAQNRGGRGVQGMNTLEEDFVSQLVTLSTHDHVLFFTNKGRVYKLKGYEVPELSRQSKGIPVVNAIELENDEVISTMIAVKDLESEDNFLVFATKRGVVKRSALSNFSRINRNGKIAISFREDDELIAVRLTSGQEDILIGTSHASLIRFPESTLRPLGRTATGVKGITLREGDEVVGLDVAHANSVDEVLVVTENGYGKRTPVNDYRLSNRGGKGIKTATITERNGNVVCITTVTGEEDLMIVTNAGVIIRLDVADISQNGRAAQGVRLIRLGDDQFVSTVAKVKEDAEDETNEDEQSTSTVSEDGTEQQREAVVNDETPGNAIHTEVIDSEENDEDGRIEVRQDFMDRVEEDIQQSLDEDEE

SMILES | MIC [µg/mL]
Cc1c(N2CCC(N)C2)c(F)cn2c(=O)c(/C(O)=C/[N+](=O)[O-])cc(C3CC3)c12 (stereo not drawn) | 6.2 (≈ 16 µM)
Cc1c(N2CC[C@@H]([C@@H](C)N)C2)c(F)cn2c(=O)c(C(=O)O)cc(C3CC3)c12 | 0.39 (≈ 1.04 µM)

Target: T2, DNA gyrase (Staphylococcus aureus)
Assay: In vitro antibacterial activity against gram-positive organism Staphylococcus aureus ATCC 6538p
Assay type: functional
Conditions: not given

SMILES | MIC [µg/mL]
Cc1c(N2CCC(N)C2)c(F)cn2c(=O)c(/C(O)=C/[N+](=O)[O-])cc(C3CC3)c12 (stereo not drawn) | 0.05 (≈ 0.129 µM)
Cc1c(N2CC[C@@H]([C@@H](C)N)C2)c(F)cn2c(=O)c(C(=O)O)cc(C3CC3)c12 | 0.002 (≈ 0.00536 µM)

Target: T2, DNA gyrase (Staphylococcus aureus)
Assay: In vitro antibacterial activity against gram-positive organism Staphylococcus aureus NCTC-10649M
Assay type: functional
Conditions: not given

SMILES | MIC [µg/mL]
Cc1c(N2CCC(N)C2)c(F)cn2c(=O)c(/C(O)=C/[N+](=O)[O-])cc(C3CC3)c12 (stereo not drawn) | 0.1 (≈ 0.257 µM)
Cc1c(N2CC[C@@H]([C@@H](C)N)C2)c(F)cn2c(=O)c(C(=O)O)cc(C3CC3)c12 | 0.002 (≈ 0.00536 µM)

Target: T1, DNA gyrase (Escherichia coli)
Assay: In vitro antibacterial activity against gram-positive organism Streptococcus bovis A-5169
Assay type: functional
Conditions: Streptococcus equinus

SMILES | MIC [µg/mL]
Cc1c(N2CCC(N)C2)c(F)cn2c(=O)c(/C(O)=C/[N+](=O)[O-])cc(C3CC3)c12 (stereo not drawn) | 0.2 (≈ 0.515 µM)
Cc1c(N2CC[C@@H]([C@@H](C)N)C2)c(F)cn2c(=O)c(C(=O)O)cc(C3CC3)c12 | 0.01 (≈ 0.0268 µM)

Target: T2, DNA gyrase (Staphylococcus aureus)
Assay: In vivo efficacy against Staphylococcus aureus NCTC-10649M after subcutaneous administration
Assay type: functional, organism-based
Conditions: not given

SMILES | ED50 [mg/kg]
Cc1c(N2CC[C@@H]([C@@H](C)N)C2)c(F)cn2c(=O)c(C(=O)O)cc(C3CC3)c12 | < 0.2

Test system: Staphylococcus aureus
Assay: In vivo efficacy against Staphylococcus aureus NCTC-10649M by subcutaneously administered.
Assay type: functional
Conditions: not given

SMILES | ED50 [mg/kg]
Cc1c(N2CCC(N)C2)c(F)cn2c(=O)c(/C(O)=C/[N+](=O)[O-])cc(C3CC3)c12 (stereo not drawn) | > 12

Test system: Streptococcus pyogenes
Assay: In vitro antibacterial activity against gram-positive organism Streptococcus pyogenes EES61
Assay type: functional
Conditions: Streptococcus pyogenes; read-out: MIC

SMILES | MIC [µg/mL]
Cc1c(N2CCC(N)C2)c(F)cn2c(=O)c(/C(O)=C/[N+](=O)[O-])cc(C3CC3)c12 (stereo not drawn) | 0.2 (≈ 0.515 µM)
Cc1c(N2CC[C@@H]([C@@H](C)N)C2)c(F)cn2c(=O)c(C(=O)O)cc(C3CC3)c12 | 0.005 (≈ 0.0134 µM)

Target: T1, DNA gyrase (Escherichia coli)
Assay: In vitro antibacterial activity against gram-positive organism Enterococcus faecium ATCC 8043
Assay type: functional
Conditions: not given

SMILES | MIC [µg/mL]
Cc1c(N2CCC(N)C2)c(F)cn2c(=O)c(/C(O)=C/[N+](=O)[O-])cc(C3CC3)c12 (stereo not drawn) | 0.39 (≈ 1 µM)
Cc1c(N2CC[C@@H]([C@@H](C)N)C2)c(F)cn2c(=O)c(C(=O)O)cc(C3CC3)c12 | 0.01 (≈ 0.0268 µM)

Test system: Staphylococcus aureus
Assay: In vivo efficacy against Staphylococcus aureus NCTC-10649M by orally administered.
Assay type: functional
Conditions: not given

SMILES | ED50 [mg/kg]
Cc1c(N2CCC(N)C2)c(F)cn2c(=O)c(/C(O)=C/[N+](=O)[O-])cc(C3CC3)c12 (stereo not drawn) | 25.2

Target: T1, DNA gyrase (Escherichia coli)
Assay: not given
Conditions: Escherichia coli K-12

SMILES | CC50 [µg/mL]
Cc1c(N2CCC(N)C2)c(F)cn2c(=O)c(/C(O)=C/[N+](=O)[O-])cc(C3CC3)c12 (stereo not drawn) | 3 (≈ 7.72 µM)
Cc1c(N2CC[C@@H]([C@@H](C)N)C2)c(F)cn2c(=O)c(C(=O)O)cc(C3CC3)c12 | 0.4 (≈ 1.07 µM)

Test system: Pseudomonas aeruginosa
Assay: In vivo efficacy against Pseudomonas aeruginosa 5007 following p.o. administration.
Conditions: not given

SMILES | ED50 [mg/kg]
Cc1c(N2CC[C@@H]([C@@H](C)N)C2)c(F)cn2c(=O)c(C(=O)O)cc(C3CC3)c12 | 24.4
